In patent US12458602B2, “Realizing the nano-amorphous state of materials inside nano-porous templates” (The Chinese University of Hong Kong, priority 2021, dated 2025):

Experiment: In-vitro dissolution test in deionized water
Assay type: physicochemical
Settings: room temperature
Description: The total drug dose is about 50 mg dissolved in 1 L of deionized water at the room temperature. In order to obtain the concentration versus time plot, a series of samples (3 mL) are withdrawn at predetermined time points, and the same amount of fresh media is added back to maintain a constant volume (1 L). These withdrawn samples are filtered by 0.22 μm MCE filters, and their concentrations are then determined with a UV spectrophotometer.

Row | Structure (SMILES) | drug released in 6 hours
1 | CC(C(=O)O)c1ccc(-c2ccccc2)c(F)c1 (centres unmarked) [Flurbiprofen crystal, Flurbiprofen] | 9.5%
2 | CCC(COC(=O)c1cc(OC)c(OC)c(OC)c1)(c1ccccc1)N(C)C (centres unmarked) [Trimebutine crystal, Trimebutine] | 1.18%
